This is an account of results in patent US20250026746A1, “ENHANCERS OF PARTICULATE GUANYLYL CYCLASE RECEPTOR A” (Mayo Foundation for Medical Education and Research, priority 2021, published 2025).

The structures appear in SMILES notation.

The subject of experiment [1] is spontaneously hypertensive rats. As to the kind of experiment: In vivo actions in spontaneously hypertensive rats (cGMP, blood pressure, renal function). The settings on record: acetate salt, 10 mg/kg single IV bolus, SHR; for plasma cGMP: 15 minutes after administration; for diastolic blood pressure: 60 minutes post-bolus; for diastolic blood pressure / urinary sodium excretion / urinary volume / systolic blood pressure: vs vehicle (and Compound 2); for urinary sodium excretion / urinary volume: post-bolus; for systolic blood pressure: throughout 60 minutes post bolus. More on the design: species or system rat. The method, then:
The cGMP generating, blood pressure lowering and renal enhancing actions of a single intravenous (IV) bolus dose of Compound 3, Compound 1 or Compound 2 acetate salt (n=4/small molecule form: 10 mg/kg) or Vehicle (n=5: 15% DMSO/60% PEG300/25% PBS) in spontaneously hypertensive rats (SHRs; male: 12 weeks old) were investigated. Studies were performed in accordance with the Animal Welfare Act and with approval of the Mayo Clinic Institutional Animal Care and Use Committee.
SHRs were administered Inactin (100 mg/kg: IP) to induce anesthesia and then maintained with additional Inactin (100 mg/kg: IP), as required. Once adequate anesthesia was achieved, the anesthetized SHRs were placed on a heating table set at 37° C. to maintain body temperature for the entire study and then were subjected to vessel and bladder cannulation. A polyethylene (PE)-50 tube catheter was placed into the jugular vein for saline, Compound 3, Compound 1, Compound 2 or vehicle IV administration. The carotid artery was cannulated with a PE-50 tube catheter for blood pressure monitoring (Sonometrics, London, Ontario, Canada) and blood sampling/collection. The bladder was accessed and cannulated with a PE-90 tube catheter for passive urine collection. After completion of the procedural set up, a 45-minute equilibration period was performed that included continuous IV saline infusion, a 30-minute baseline (pre-bolus) urine collection and a single baseline blood sample at the end of the 30-minute baseline urine collection. […] BP was monitored and recorded, beginning prior to IV bolus administration (0-minute post-bolus) and then at 15, 30, 45 and 60 minutes post-bolus. At the end of the 60-minute clearance, the anesthetized rats were euthanized by exsanguination and all blood and urine samples were stored at −80° C. until assayed. Plasma and urinary cGMP levels were measured using a cGMP ELISA kit (Enzo Life Sciences, Farmingdale, NY) as instructed by the manufacturer. Urinary sodium concentrations were determined with an electrolyte analyzer (Diamond Diagnostics Inc., Holliston, MA).

For the next experiment, the target named is T1, human pGC-A (Homo sapiens, UniProt P16066).
T1 construct: expressed in transfected cells; host or cells: HEK293
T1 sequence (P16066 33-1061): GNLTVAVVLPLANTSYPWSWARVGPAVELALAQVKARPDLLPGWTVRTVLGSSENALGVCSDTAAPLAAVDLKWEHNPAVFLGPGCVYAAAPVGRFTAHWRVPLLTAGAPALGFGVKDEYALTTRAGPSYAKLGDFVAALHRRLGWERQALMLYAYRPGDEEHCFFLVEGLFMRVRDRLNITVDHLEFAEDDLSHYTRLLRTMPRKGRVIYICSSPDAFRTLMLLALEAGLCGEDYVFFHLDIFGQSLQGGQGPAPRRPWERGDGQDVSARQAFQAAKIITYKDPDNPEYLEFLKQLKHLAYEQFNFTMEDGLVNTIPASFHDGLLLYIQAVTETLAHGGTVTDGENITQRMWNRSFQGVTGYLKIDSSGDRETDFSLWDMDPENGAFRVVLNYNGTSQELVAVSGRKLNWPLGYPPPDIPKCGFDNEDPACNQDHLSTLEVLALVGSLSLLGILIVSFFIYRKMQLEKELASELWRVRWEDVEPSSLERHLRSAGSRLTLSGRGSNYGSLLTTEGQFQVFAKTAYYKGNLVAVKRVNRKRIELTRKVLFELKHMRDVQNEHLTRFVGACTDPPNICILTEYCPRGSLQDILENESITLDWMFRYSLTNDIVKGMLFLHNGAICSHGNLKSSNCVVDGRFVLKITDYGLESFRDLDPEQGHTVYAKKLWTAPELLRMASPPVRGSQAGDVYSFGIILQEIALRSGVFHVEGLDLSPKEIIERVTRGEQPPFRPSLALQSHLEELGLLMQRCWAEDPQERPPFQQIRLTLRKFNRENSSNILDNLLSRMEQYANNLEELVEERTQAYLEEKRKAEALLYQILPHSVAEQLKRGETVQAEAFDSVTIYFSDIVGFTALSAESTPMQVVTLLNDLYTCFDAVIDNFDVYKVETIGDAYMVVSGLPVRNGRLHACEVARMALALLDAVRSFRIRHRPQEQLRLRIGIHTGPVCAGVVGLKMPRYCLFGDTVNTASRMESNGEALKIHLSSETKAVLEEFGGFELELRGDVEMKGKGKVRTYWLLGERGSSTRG
T1 sequence (P01160 124-151 partner limits assumed): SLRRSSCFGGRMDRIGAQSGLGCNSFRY
As to the kind of experiment: Positive allosteric modulation of pGC-A-mediated cGMP production, HTRF competition assay (Example 1). The following applies: free base; for EC50: HEK 293 human pGC-A expressing cells, presence of EC30 ANP (1.3 pM), average of 3 independent experiments, read-out: pEC50 cGMP response (converted). Format: cell-based. The method, then: Test compounds at 10 mM DMSO stock concentration were added to 384 well assay plates using Tecan dispenser starting at 40 μM concentration and diluted 2-fold for 10-point concentration-response curves. Wells were backfilled with DMSO such that the final concentration of DMSO in all wells was maintained at 0.3% DMSO. Positive allosteric modulation (presence of EC30 concentration of ANP at 1.3 pM) of pGC-A-mediated activation of cGMP production was measured in human pGC-A overexpressing HEK293 cells by homogenous time-resolved florescence (HTRF) competition assay using cGMP CisBio detection kit (Cat #: 62GM2PEC). Enantiomerically pure(S)-N-(4,6-difluorobenzo[d]thiazol-2-yl)-1-(2-(dimethylamino)ethyl) piperidine-3-carboxamide and (R)-N-(4,6-difluorobenzo[d]thiazol-2-yl)-1-(2-(dimethylamino)ethyl) piperidine-3-carboxamide were individually synthesized from enantiomerically pure starting materials (R- and S-nipecotic acid).

Experiment [2] concerns Primary Human cardiomyocytes. As to the kind of experiment: cGMP levels (ELISA) in human cardiomyocytes. Type of experiment: cell-based. The settings on record: acetate salt, ANP (10^-10 M); for cGMP generation in HCMs in the presence of ANP: 1 or 10 μM, vs vehicle. The method, then: Primary Human cardiomyocytes (HCMs: Catalog No. 6200, Lot No. 6288, PromoCell) were maintained and subcultured according to the manufacturer's protocols. Passage 5 was used in the study. Treatment buffer, Compound 3, Compound 1 and Compound 2 acetate salt, ANP, and vehicle were prepared as described above. Briefly, 5×10^5 of cells/well were grown in 6-well plates until 80 to 90% confluency and were then pretreated with vehicle or Compound 3, Compound 1 or Compound 2 at doses of 1 or 10 μM for 5 min at 37° C., then cells were treated with ANP (10^-10 M) for an additional 10 min at 37° C. Afterward, all cells were washed with PBS once and lysed with 0.1 M HCl at room temperature, and intracellular cGMP levels were measured in the lysate using a commercial cGMP ELISA kit (Enzo Life Sciences) with the acetylation method as instructed by the manufacturer.
(In an ELISA, binding on a coated surface is turned into a signal by an enzyme label.)

`CN(C)CCN1CCCC(C(=O)Nc2nc3c(F)cc(F)cc3s2)C1` (racemic) [Compound 3, N-(4,6-difluorobenzo[d]thiazol-2-yl)-1-(2-(dimethylamino)ethyl) piperidine-3-carboxamide]: in experiment [1], the “plasma cGMP” value is recorded as “increase”, the “urinary cGMP” value is “increase”, the diastolic blood pressure result is given as “greater reduction” and the urinary sodium excretion result was “greater increase”. Further, in experiment [1], the urinary volume entry is reported as “greater increase” and the systolic blood pressure entry was “greater reduction”.
Consider `CN(C)CCN1CCC[C@H](C(=O)Nc2nc3c(F)cc(F)cc3s2)C1` [Compound 1, (S)-N-(4,6-difluorobenzo[d]thiazol-2-yl)-1-(2-(dimethylamino)ethyl) piperidine-3-carboxamide], for which, at human pGC-A, the EC50 was 398 nM. In addition, the “fold more potent than the R-enantiomer (compound 2)” value at human pGC-A (presence of ANP) is recorded as 3.5 fold. In addition, in experiment [1], the “plasma cGMP” value was “increase”, the “urinary cGMP” value is listed as “increased”, the diastolic blood pressure result is “more effective” and the urinary sodium excretion entry is reported as “more effective”. In experiment [1], the urinary volume entry was “more effective” and the systolic blood pressure result was “more effective”. Also, the “cGMP generation in HCMs in the presence of ANP” value in experiment [2] was “increased cGMP levels in a dose dependent manner”. Further, in experiment [2] (both doses), the “cGMP generation in HCMs, Compound 1 compared with Compound 2” value was “more potent”.
Turning to `CN(C)CCN1CCC[C@@H](C(=O)Nc2nc3c(F)cc(F)cc3s2)C1` [Compound 2, (R)-N-(4,6-difluorobenzo[d]thiazol-2-yl)-1-(2-(dimethylamino)ethyl) piperidine-3-carboxamide], at human pGC-A, the EC50 was 1260 nM. Moreover, in experiment [1], the “plasma cGMP” value is “increase” and the “urinary cGMP” value is “did not increase”. Also, in experiment [2], the “cGMP generation in HCMs in the presence of ANP” value was “increased cGMP levels in a dose dependent manner”.
